From the supplement of paper PMC10331698
± gives the standard deviation of the averaged measurements.

Experiments:
Assay in all cases: level (log10 ratio to DMSO vehicle control); higher = higher biomarker level / cell amount than vehicle control
Details in all cases: in DMSO
[1] = compound: C=CC(=O)OCC(F)(F)C(F)(F)C(F)(F)C(F)(F)C(F)(F)C(F)(F)C(F)(F)F [1H,1H-Perfluorooctyl acrylate]
Procedure: (§1)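 BioMAP Diversity Plus panel of 12 human primary cell co-culture systems (3C, 4H, LPS, SAg, BT, BF4T, BE3C, CASM3C, HDF3CGF, KF3CT, MyoF, Mphg). Compounds were added 1 h before stimulation and left for 24 h (MyoF 48 h; BT 72 h for soluble read-outs or 6 d for IgG). Biomarkers were read by ELISA, cytotoxicity by SRB, PBMC viability and proliferation by Alamar Blue. Each well value was divided by the mean of 8 DMSO control wells on the same plate and log10 transformed; duplicate blinded samples were tested at 4 concentrations.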

[2] = compound: COC(=O)CCC(F)(F)C(F)(F)C(F)(F)C(F)(F)F [Methyl 2H,2H,3H,3H-perfluoroheptanoate]
Procedure: as §1

[3] = compound: O=C(O)C(F)(F)C(F)(F)C(F)(F)C(F)(F)F [Perfluoropentanoic acid]
Procedure: as §1

[4] = compound: O=C(O)C(F)(F)C(F)(F)C(F)F [4H-Perfluorobutanoic acid]
Procedure: as §1

[5] = compound: O=C(O)C(F)(F)OC(F)(F)C(F)(F)OC(F)(F)C(=O)O [Perfluoro-3,6-dioxaoctane-1,8-dioic acid]
Procedure: as §1

[6] = compound: O=S(=O)(O)C(F)(F)C(F)(F)C(F)(F)C(F)(F)C(F)(F)C(F)(F)F [Perfluorohexanesulfonic acid]
Procedure: as §1

Test System | level (log10) ([1]; 6700 nM) | level (log10) ([1]; 20000 nM) | level (log10) ([1]; 60000 nM) | level (log10) ([2]; 6700 nM) | level (log10) ([2]; 20000 nM) | level (log10) ([2]; 60000 nM) | level (log10) ([3]; 6700 nM) | level (log10) ([3]; 20000 nM) | level (log10) ([3]; 60000 nM) | level (log10) ([4]; 6700 nM) | level (log10) ([4]; 20000 nM) | level (log10) ([4]; 60000 nM) | level (log10) ([5]; 6700 nM) | level (log10) ([5]; 20000 nM) | level (log10) ([5]; 60000 nM) | level (log10) ([6]; 6700 nM) | level (log10) ([6]; 20000 nM) | level (log10) ([6]; 60000 nM)
3C:CCL2/MCP-1 | -0.0085 ± 0.00071 | -0.009 ± 0.023 | 0.017 ± 0.028 | 0.011 ± 0.0085 | 0.007 ± 0.013 | 0.0285 ± 0.028 | -0.0105 ± 0.00071 | 0.0005 ± 0.0021 | 0.0215 ± 0.019 | -0.02 ± 0.061 | -0.006 ± 0.05 | 0.0215 ± 0.03 | 0.002 ± 0.016 | -0.007 ± 0.023 | 0.01 ± 0.03 | 0.0055 ± 0.011 | 0.007 ± 0.017 | 0.017 ± 0.031
3C:CD54/ICAM-1 | 0.002 ± 0.0014 | 0 ± 0.0099 | 0 ± 0.018 | -0.0175 ± 0.0078 | -0.017 | 0.002 ± 0.017 | -0.0145 ± 0.03 | -0.028 ± 0.021 | -0.0075 ± 0.022 | -0.016 ± 0.0014 | -0.0105 ± 0.018 | 0.0025 ± 0.0092 | -0.0005 ± 0.0092 | -0.019 ± 0.0085 | -0.0135 ± 0.0035 | -0.002 ± 0.014 | -0.008 ± 0.0042 | 0.005 ± 0.0099
3C:CD62E/E-Selectin | -0.001 ± 0.0071 | -0.006 ± 0.0099 | 0.0035 ± 0.013 | -0.037 ± 0.0071 | -0.012 ± 0.013 | 0.0005 ± 0.022 | -0.0085 ± 0.0035 | 0.0005 ± 0.0064 | 0.0175 ± 0.026 | -0.024 | -0.0235 ± 0.0092 | 0.017 ± 0.03 | 0.0015 ± 0.029 | -0.0185 ± 0.0092 | -0.005 ± 0.02 | -0.0075 ± 0.011 | 0.012 ± 0.0042 | 0.0685 ± 0.018
3C:CD106/VCAM-1 | -0.0215 ± 0.023 | -0.0245 ± 0.021 | -0.012 ± 0.0028 | -0.0175 ± 0.028 | -0.0125 ± 0.013 | 0.0065 ± 0.005 | 0.002 ± 0.023 | -0.0055 ± 0.021 | 0.0235 ± 0.015 | -0.0075 ± 0.04 | -0.0265 ± 0.005 | 0.006 ± 0.0028 | 0.0105 ± 0.016 | -0.002 ± 0.02 | 0.0015 ± 0.0064 | -0.0085 ± 0.026 | -0.029 ± 0.0042 | -0.014 ± 0.025
3C:CD141/Thrombomodulin | -0.027 ± 0.017 | -0.023 ± 0.018 | -0.0455 ± 0.021 | -0.0355 ± 0.032 | -0.017 ± 0.0042 | -0.0225 ± 0.013 | 0.024 ± 0.021 | 0.0345 ± 0.005 | 0.0685 ± 0.042 | -0.0285 ± 0.0078 | -0.008 ± 0.013 | 0.0035 ± 0.0035 | -0.0265 ± 0.036 | -0.0065 ± 0.023 | 0.0095 ± 0.028 | -0.008 ± 0.035 | -0.015 ± 0.023 | -0.004 ± 0.0028
3C:CD142/Tissue Factor | 0.001 ± 0.0057 | 0 ± 0.0014 | -0.0165 ± 0.0078 | -0.0115 ± 0.066 | -0.038 ± 0.021 | -0.0005 ± 0.026 | 0.0225 ± 0.011 | 0.018 ± 0.027 | 0.0395 ± 0.056 | -0.004 ± 0.0014 | -0.021 ± 0.0099 | 0.0105 ± 0.005 | -0.004 ± 0.042 | -0.0155 ± 0.013 | -0.0025 ± 0.059 | 0.014 ± 0.023 | 0.0105 ± 0.025 | 0.0545 ± 0.011
BE3C:Keratin 8/18 | -0.011 ± 0.023 | -0.0145 ± 0.029 | -0.0045 ± 0.022 | -0.0225 ± 0.005 | 0.0015 ± 0.015 | -0.0165 ± 0.018 | -0.006 ± 0.0057 | -0.011 ± 0.0071 | 0.0035 ± 0.032 | -0.017 ± 0.014 | -0.021 ± 0.011 | 0.0075 ± 0.00071 | -0.0105 ± 0.0092 | -0.004 ± 0.0014 | 0.0005 ± 0.022 | 0.0085 ± 0.0035 | 0.0005 ± 0.0064 | -0.018 ± 0.0085
BE3C:MMP-1 | -0.018 ± 0.016 | -0.0215 ± 0.0035 | 0.006 ± 0.0014 | 0.0035 ± 0.052 | 0.004 ± 0.045 | 0.03 ± 0.1 | -0.015 ± 0.03 | -0.0175 ± 0.029 | 0.027 ± 0.047 | -0.033 ± 0.059 | -0.0175 ± 0.0035 | 0.008 ± 0.051 | -0.0085 ± 0.029 | -0.023 ± 0.047 | 0.011 ± 0.025 | 0.0075 ± 0.00071 | 0.0375 ± 0.018 | 0.227 ± 0.042
BE3C:MMP-9 | -0.0135 ± 0.025 | -0.013 ± 0.024 | -0.022 ± 0.018 | -0.001 ± 0.011 | -0.0065 ± 0.023 | -0.0155 ± 0.013 | -0.0325 ± 0.0078 | -0.0105 ± 0.015 | 0.0215 ± 0.035 | -0.0105 ± 0.019 | 0.02 ± 0.023 | -0.009 ± 0.02 | -0.0115 ± 0.0078 | -0.0035 ± 0.028 | 0.0385 ± 0.00071 | 0.0095 ± 0.026 | 0.014 ± 0.0071 | 0.0275 ± 0.00071
BE3C:PAI-I | -0.0295 ± 0.018 | -0.0285 ± 0.028 | -0.028 ± 0.03 | -0.0065 ± 0.025 | -0.006 ± 0.044 | -0.0055 ± 0.005 | -0.021 ± 0.0071 | -0.02 ± 0.0057 | 0.015 ± 0.057 | -0.0235 ± 0.025 | -0.014 ± 0.038 | -0.0175 ± 0.023 | -0.013 ± 0.0042 | -0.0105 ± 0.019 | 0.0065 ± 0.022 | 0.0035 ± 0.00071 | -0.003 ± 0.0085 | 0.001 ± 0.0014
BE3C:SRB | 0.0005 ± 0.0078 | -0.003 ± 0.0085 | 0.0085 ± 0.015 | -0.004 ± 0.0028 | -0.0015 ± 0.0021 | 0.002 | 0.002 ± 0.0085 | -0.0035 ± 0.005 | 0 ± 0.016 | -0.003 ± 0.0014 | -0.004 ± 0.0099 | 0.0025 ± 0.0021 | -0.0005 ± 0.0021 | -0.0035 ± 0.0021 | 0.0025 ± 0.011 | -0.0035 ± 0.022 | -0.013 ± 0.0085 | -0.017 ± 0.011
BE3C:tPA | 0.005 ± 0.0028 | 0.0125 ± 0.00071 | 0.0605 ± 0.022 | -0.006 ± 0.02 | -0.016 ± 0.014 | 0.0005 ± 0.0078 | -0.059 ± 0.011 | -0.043 ± 0.017 | -0.013 ± 0.064 | -0.016 ± 0.0014 | -0.0305 ± 0.012 | -0.006 ± 0.016 | -0.014 ± 0.018 | -0.0135 ± 0.0035 | -0.0015 ± 0.0021 | -0.0105 ± 0.0064 | 0.0015 ± 0.0035 | 0.012 ± 0.0014
BE3C:uPA | -0.003 ± 0.0099 | 0.005 ± 0.0099 | 0.0055 ± 0.00071 | -0.013 ± 0.042 | -0.0155 ± 0.018 | -0.0155 ± 0.012 | -0.0115 ± 0.0021 | -0.013 ± 0.0057 | 0.004 ± 0.018 | -0.016 ± 0.05 | -0.009 ± 0.016 | 0.0055 ± 0.06 | -0.0145 ± 0.005 | -0.013 ± 0.014 | -0.0025 ± 0.0064 | 0.0145 ± 0.016 | -0.0005 ± 0.028 | 0.0115 ± 0.019
CASM3C:CCL2/MCP-1 | -0.0035 ± 0.0078 | -0.0095 ± 0.0035 | -0.004 ± 0.0071 | -0.0075 ± 0.011 | -0.003 ± 0.0071 | 0.004 ± 0.03 | -0.0085 ± 0.005 | -0.0125 ± 0.019 | -0.0015 ± 0.015 | 0.006 | -0.0065 ± 0.012 | 0.0065 ± 0.016 | -0.033 ± 0.037 | -0.034 ± 0.027 | 0.021 ± 0.02 | -0.0215 ± 0.018 | -0.013 ± 0.0085 | 0.0035 ± 0.00071
CASM3C:CD87/uPAR | 0.0095 ± 0.028 | 0.0135 ± 0.021 | 0.0235 ± 0.019 | -0.029 ± 0.035 | -0.0275 ± 0.026 | -0.0185 ± 0.022 | -0.027 ± 0.052 | -0.031 ± 0.027 | -0.0175 ± 0.005 | -0.016 ± 0.013 | 0 ± 0.02 | 0.0055 ± 0.022 | -0.023 ± 0.03 | -0.023 ± 0.018 | -0.0255 ± 0.00071 | 0.007 ± 0.0014 | 0.001 ± 0.0057 | 0.0065 ± 0.012
